Laboratory results reported in PubChem BioAssay (NCI).
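Grown in 96-well plates, cells were treated for 48 hours with each compound at five concentrations. Insufficient inhibition: endpoint recorded as highest concentration tested. TGI: concentration producing complete growth inhibition.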

Columns and labels:
Assay in all cases: growth of human tumour cells (NCI), 48 h
DU-145 prostate = tested on: DU-145 prostate
HOP-62 NSCLC = tested on: HOP-62 NSCLC
HS 578T breast = tested on: HS 578T breast
HT29 colon = tested on: HT29 colon
MDA-N = tested on: MDA-N
MOLT-4 leukemia = tested on: MOLT-4 leukemia
NCI-H226 lung = tested on: NCI-H226 lung
NCI-H23 lung = tested on: NCI-H23 lung
SK-MEL-5 melanoma = tested on: SK-MEL-5 melanoma
SK-OV-3 ovarian = tested on: SK-OV-3 ovarian

Compound | TGI (DU-145 prostate) [µM] | TGI (HOP-62 NSCLC) [µM] | TGI (HS 578T breast) [µM] | TGI (HT29 colon) [µM] | TGI (MDA-N) [µM] | TGI (MOLT-4 leukemia) [µM] | TGI (NCI-H226 lung) [µM] | TGI (NCI-H23 lung) [µM] | TGI (SK-MEL-5 melanoma) [µM] | TGI (SK-OV-3 ovarian) [µM]
O=c1[nH]nc(Cc2ccc(Cl)cc2)n1/N=C/c1c[nH]c2ccccc12 | > 100 | > 100 | > 100 | > 100 | > 100 | > 100 | > 100 | > 100 | > 100 | > 100
NCCS(=O)(=O)O | > 100 | > 100 | > 100 | > 100 | > 100 | > 100 | > 100 | > 100 | > 100 | –
CCOC(=O)C(NC(=O)CC)(Nc1ccc(S(=O)(=O)Nc2ccc(OC)nn2)cc1)C(F)(F)F (stereo not given) | > 100 | > 100 | > 100 | > 100 | > 100 | > 100 | > 100 | > 100 | > 100 | > 100
Cc1cc2oc3c(ccc(=O)n3C)c(=O)c2c(C)c1Cl | > 100 | > 100 | 93 | > 100 | > 100 | – | > 100 | > 100 | > 100 | > 100
Nc1ccccc1OCCCOc1ccccc1N | > 100 | > 100 | > 100 | > 100 | > 100 | > 100 | > 100 | > 100 | > 100 | > 100
COC12C=CC(CC1)C(C)(C)C2OS(C)(=O)=O (stereo not given) | > 100 | > 100 | > 100 | > 100 | > 100 | > 100 | > 100 | > 100 | > 100 | > 100
O=S(c1ccc(Cl)cc1)c1ccccc1C1=NCCN1 (stereo not given) | > 100 | > 100 | > 100 | > 100 | > 100 | > 100 | > 100 | > 100 | > 100 | > 100
C=CCOCn1ccc(N)nc1=O | > 100 | > 100 | > 100 | > 100 | > 100 | > 100 | > 100 | > 100 | > 100 | > 100
COc1cccc([C@@H]2CC(=O)c3cc4c(cc3N2)OCO4)c1 | > 100 | > 100 | > 100 | – | > 100 | – | > 100 | – | > 100 | > 100
CN(C)C=NCC(O)c1ccccc1 (stereo not given) | > 100 | > 100 | > 100 | > 100 | > 100 | > 100 | > 100 | > 100 | > 100 | > 100
CC(=O)N1C(Nc2cccc3nc(C)ccc23)CCN1c1ccccc1 (stereo not given) | > 10 | > 10 | > 10 | > 10 | > 10 | > 10 | > 10 | > 10 | > 10 | > 10
O=C1C=C(O)c2c(O)ccc(O)c2C1=O | > 100 | > 100 | > 100 | > 100 | > 100 | > 100 | > 100 | > 100 | > 100 | > 100
Cc1ccc(N=C2SC(=NN(C)C)SC2=Nc2ccc(C)cc2)cc1 | > 100 | > 100 | > 100 | > 100 | > 100 | > 100 | > 100 | > 100 | > 100 | > 100
CC(=O)OCC1OC(SC2=NC(=O)/C(=C/c3ccccc3)S2)C(OC(C)=O)C(OC(C)=O)C1OC(C)=O (stereo not given) | > 100 | > 100 | 75.7 | > 100 | > 100 | 54.5 | 95 | > 100 | 42.8 | > 100
CC(=O)c1[nH]c(Nc2ccc(C)cc2)c(C(=S)Nc2ccccc2)c1N | 34.2 | 42.1 | 52.3 | > 100 | 37.2 | > 100 | 32.4 | 42.8 | 31 | > 100
C[C@@]12C[C@@H](c3ccccc3O1)N1Cc3ccccc3CSC1=N2 | > 100 | > 100 | > 100 | > 100 | > 100 | > 100 | > 100 | > 100 | > 100 | > 100
COc1ccc(Cn2c3ccc([N+](=O)[O-])cc3c(=O)n2Cc2ccccn2)cc1 | > 100 | > 100 | > 100 | > 100 | > 100 | > 100 | > 100 | > 100 | 83.9 | > 100
S=C(N/N=C(\C(=N/NC(=S)N1CCCCC1)c1ccccn1)c1ccccn1)N1CCCCC1 | > 100 | > 100 | > 100 | > 100 | > 100 | > 100 | > 100 | > 100 | > 100 | > 100
CC1(C)CN=CC(C)(OCc2ccccc2)C(=O)NC(C)(C)CN=CC(C)(OCc2ccccc2)C(=O)N1 (stereo not given) | > 10 | > 10 | > 10 | > 10 | > 10 | > 10 | > 10 | > 10 | > 10 | > 10
CC(=O)c1ccc2c3c1O[C@H]1c4[nH]c5ccccc5c4C[C@@]4(O)[C@@H](C2)N(CC2CC2)CC[C@]314 | 39.5 | 36.5 | 15.2 | 20 | 34.6 | 47.6 | 42.5 | 48.1 | 31.8 | 35.9
CCN(CC)C1Oc2cc3c(cc2C(c2cccc(OC)c2O)C1C)OCO3 (stereo not given) | > 66.7 | 21.3 | 18.7 | 27.5 | 5.82 | 28 | 13.3 | 43.5 | 13.6 | > 61.3
N#Cc1c(N2CCCC2)nsc1Nc1ccc(F)cc1 | > 100 | > 100 | > 100 | > 100 | > 100 | > 100 | > 100 | > 100 | > 100 | > 100

Compound | TGI (DU-145 prostate) [µM] | TGI (HOP-62 NSCLC) [µM] | TGI (HS 578T breast) [µM] | TGI (HT29 colon) [µM] | TGI (MDA-N) [µM] | TGI (MOLT-4 leukemia) [µM] | TGI (NCI-H226 lung) [µM] | TGI (NCI-H23 lung) [µM] | TGI (SK-MEL-5 melanoma) [µM] | TGI (SK-OV-3 ovarian) [µM]
CC1=CC(=O)/C(=C/n2c(=S)[nH]c3cc(C)ccc32)C(=O)O1 | > 100 | > 100 | > 100 | > 100 | > 100 | > 100 | > 100 | > 100 | > 100 | > 100
CC1CCOc2ccc(cc2)C=Nc2ccc(cc2)-c2ccc(cc2)N=Cc2ccc(cc2)OCC1 (stereo not given) | > 100 | – | > 100 | > 100 | > 100 | > 100 | > 100 | > 100 | > 100 | > 100
Cn1c(COC(=O)NC2CCCCC2)c(COC(=O)NC2CCCCC2)c2ccc3cc(C=O)ccc3c21 | > 100 | – | > 100 | > 100 | > 100 | > 100 | > 100 | > 100 | > 100 | > 100
CN(C)CC1CCCc2ccccc2C1=O (stereo not given) | 10.7 | 33.7 | 16.3 | 3.38 | 3.07 | – | 48.8 | 15.2 | 15.9 | 32.7
CN1C=COC1N=C1CCCCC1 (stereo not given) | > 100 | > 100 | > 100 | > 100 | > 100 | > 100 | > 100 | > 100 | > 100 | > 100
COc1ccc(C2C(C#N)=C(S)N(C3OC(CO)C(O)C(O)C3O)C(C)=C2C(C)=O)cc1 (stereo not given) | > 100 | > 100 | > 100 | > 100 | > 100 | > 100 | > 100 | > 100 | > 100 | –
NC1=Nc2ccccc2Sc2nc3ccccc3n21 | > 100 | > 100 | > 100 | 31.3 | > 100 | > 100 | > 100 | > 100 | > 100 | 77.9
Cc1ccc2c(=O)cc(Cc3csc4ccccc34)[nH]c2n1 | > 100 | > 100 | 46.9 | > 100 | > 100 | > 100 | 85.8 | 53.4 | 32.4 | > 100
O=c1c2cc(I)ccc2nc(SCc2nnco2)n1Cc1ccccc1 | > 100 | > 100 | > 100 | > 100 | > 100 | 47.4 | > 100 | > 100 | > 100 | > 100
COc1cc(C2c3cc(OC)c(OC)c(O)c3C(=O)C3CCC(=O)N32)cc(OC)c1OC (stereo not given) | > 100 | > 100 | > 100 | > 100 | 34.5 | > 100 | > 100 | – | > 100 | > 100
C[N+]1([O-])[C@H]2CC(OC(=O)[C@H](CO)c3ccccc3)C[C@H]1[C@H]1O[C@H]12 (stereo not given in full) | > 100 | > 100 | > 100 | > 100 | > 100 | > 100 | > 100 | > 100 | > 100 | > 100
CC1C(C#N)(C#N)C(C#N)=C(N)C1(C)[N+](=O)[O-] (stereo not given) | > 100 | > 100 | > 100 | > 100 | > 100 | > 100 | > 100 | > 100 | > 100 | > 100
COc1ccc(N2N=NN(C(C)C)/C2=C(/Cl)c2nnnn2-c2ccc(OC)cc2)cc1 | 22.7 | 37.1 | 52.6 | 24.4 | 27.4 | 14.8 | 42.2 | 33 | 28.7 | 32.8
CS(=O)(=O)OCC1CCCCCCCCCCC12SCCCS2 (stereo not given) | > 100 | > 100 | > 100 | > 100 | > 100 | > 100 | > 100 | > 100 | > 100 | > 100
O=C1CC(C(COCc2ccccc2)OCc2ccccc2)CC(=O)N1 (stereo not given) | > 100 | > 100 | > 100 | > 100 | > 100 | > 100 | > 100 | > 100 | > 100 | –
CCOC1NC(/N=C/c2ccc(OC)cc2)=C(C#N)C1C#N (stereo not given) | > 100 | > 100 | > 100 | > 100 | > 100 | > 100 | > 100 | > 100 | > 100 | > 100
O=C(/C=C/c1ccccc1)Oc1cccc(Br)c1 | > 100 | > 100 | > 100 | > 100 | > 100 | 29.8 | > 100 | > 100 | > 100 | > 100
Cc1cn([C@@H]2C[C@H](CO)[C@@H]2O)c(=O)[nH]c1=O | > 100 | > 100 | > 100 | > 100 | > 100 | > 100 | > 100 | > 100 | > 100 | –
OC(C1CCCCCCCCCC1)C(O)C1CCCCCCCCCC1 (stereo not given) | > 100 | > 100 | > 100 | > 100 | > 100 | > 100 | > 100 | > 100 | > 100 | > 100
Cc1c2cccc-2c(OCCOC(=O)n2ccnc2)cc2c1[nH]c1ccccc12 | 22 | 28.4 | > 100 | 5.22 | 17.5 | 25.2 | 8.13 | 6.31 | 5.68 | 18.8
O=C1CCCCN1C(=O)c1ccc([N+](=O)[O-])cc1 | > 100 | > 100 | > 100 | > 100 | > 100 | > 100 | > 100 | > 100 | > 100 | –
COc1cc(S(=O)(=O)Nc2ccc(-c3csc(N4C(=O)C(C)SC4c4ccccc4)n3)cc2)ccc1Cl (stereo not given) | > 100 | – | > 100 | > 100 | > 100 | > 100 | > 100 | > 100 | > 100 | –
